Where two headings read alike, the source gives them in different places.
Key:
[1] = Cytotoxicity assay (Cell Titer Glo); conditions: African green monkey, CC50 (μM), Table 10, Scaffold 1; Vero cells
[2] = system: EV-A71; assay: CPE inhibition assay (Cell Titer Glo) against EV-A71 in Vero cells; type: cell-based, Enterovirus A71; conditions: for IC50: Enterovirus A, EVA71, EV-A71, Vero cells, read-out: IC50
[3] = in vitro; conditions: African green monkey; for CC50 at 3 days: CC50 (μM)
[4] = target: T1, EV-A71 Δ2C^116-329 (Human enterovirus 71, UniProt Q66478); assay: biochemical; type: biochemical
T1 construct: EV-A71 Δ2C (amino acids 116-329) was designed with; made in house; host or cells: E. coli Rosetta 2(DE3) pLysS, pMALc5x vector

[5] = Table 10, Scaffold 1, CC50/IC50
[6] = Table 12, Scaffold 3, CC50/IC50
[7] = Table 13, Scaffold 4, CC50/IC50

T1 sequence (Q66478 1227-1440, stated change not applied): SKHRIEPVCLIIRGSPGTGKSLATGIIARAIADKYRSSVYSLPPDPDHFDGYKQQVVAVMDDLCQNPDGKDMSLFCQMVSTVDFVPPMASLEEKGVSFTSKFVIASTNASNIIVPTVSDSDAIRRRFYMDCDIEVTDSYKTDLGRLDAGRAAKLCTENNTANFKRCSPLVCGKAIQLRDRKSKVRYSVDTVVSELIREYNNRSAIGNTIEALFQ

O=C(Cc1cccs1)Nc1ccc(-c2nc3ccccc3[nH]2)cc1 [Compound 9, N-[4-(1H-benzimidazol-2-yl)phenyl]-2-(2-thienyl)acetamide]
CC50 at 3 days [1]: 338 µM | IC50 ([2]; Table 10, Scaffold 1): 104 µM | Selectivity Index [2, 5]: 3.26

Cc1cccc(C(=O)Nc2ccc(-c3nc4ccccc4[nH]3)cc2)c1 [Compound 12, N-[4-(1H-benzimidazol-2-yl)phenyl]-3-methylbenzamide]
CC50 at 3 days [3]: 432 µM | IC50 ([2]; Table 10, Scaffold 1): 13.2 µM | Selectivity Index [2, 5]: 32.71 | IC50 [4]: 652 µM

O=C(Nc1ccc(-c2nc3ccccc3[nH]2)cc1)c1c(F)c(F)c(F)c(F)c1F [Compound 16, N-[4-(1H-benzimidazol-2-yl)phenyl]-2,3,4,5,6-pentafluorobenzamide]
CC50 at 3 days [1]: > 400 µM | IC50 ([2]; Table 10, Scaffold 1): > 25 µM

O=C(CSc1ccc(Cl)cc1)Nc1ccc(-c2nc3ccccc3[nH]2)cc1 [Compound 25, N-[4-(1H-benzimidazol-2-yl)phenyl]-2-[(4-chlorophenyl)thio]acetamide]
CC50 at 3 days [1]: 582 µM | IC50 ([2]; Table 10, Scaffold 1): > 25 µM

O=C(Nc1ccc(-c2nc3ccccc3[nH]2)cc1)c1ccc(C(=O)Nc2ccc(-c3nc4ccccc4[nH]3)cc2)cc1 [Compound 28, N,N′-bis[4-(1H-benzimidazol-2-yl)phenyl]terephthalamide]
CC50 at 3 days [3]: > 400 µM | IC50 ([2]; Table 10, Scaffold 1): 41.7 µM | Selectivity Index [2, 5]: >9.6 | IC50 [4]: 0.55 µM

Cc1ccc2[nH]c(-c3ccc(NC(=O)Cc4cccs4)cc3)nc2c1 [Compound 35, N-[4-(5-methyl-1H-benzimidazol-2-yl)phenyl]-2-(2-thienyl)acetamide]
CC50 at 3 days [1]: > 400 µM | IC50 ([2]; Table 10, Scaffold 1): > 25 µM

COc1ccc(C(=O)Nc2ccc(-c3nc4cc(C)ccc4[nH]3)cc2)cc1OC [Compound 37, 3,4-dimethoxy-N-[4-(5-methyl-1H-benzimidazol-2-yl)phenyl]benzamide]
CC50 at 3 days [3]: > 400 µM | IC50 ([2]; Table 10, Scaffold 1): 69.1 µM | Selectivity Index [2, 5]: >5.79 | IC50 [4]: 20.6 µM

Cc1ccc2[nH]c(-c3ccc(NC(=O)c4ccc(Br)o4)cc3)nc2c1 [Compound 40, 5-bromo-N-[4-(5-methyl-1H-benzimidazol-2-yl)phenyl]-2-furamide]
CC50 at 3 days [3]: > 400 µM | IC50 ([2]; Table 10, Scaffold 1): 81.9 µM | Selectivity Index [2, 5]: >4.89 | IC50 [4]: 37.3 µM

Cc1ccc2[nH]c(-c3ccc(NC(=O)c4ccc(C)c(C)c4)cc3)nc2c1 [Compound 43, 3,4-dimethyl-N-[4-(5-methyl-1H-benzimidazol-2-yl)phenyl]benzamide]
CC50 at 3 days [3]: 170 µM | IC50 ([2]; Table 8, virus-induced CPE): 4.27 µM | Selectivity Index ([2]; Table 8, CC50/IC50): 39.86 | Selectivity Index [2, 5]: 39.86 | IC50 [4]: 55 µM

Cc1ccc2[nH]c(-c3ccc(NC(=O)c4cccc(Br)c4)cc3)nc2c1 [Compound 44, 3-bromo-N-[4-(5-methyl-1H-benzimidazol-2-yl)phenyl]benzamide]
CC50 at 3 days [3]: 475 µM | IC50 ([2]; Table 10, Scaffold 1): 10.5 µM | Selectivity Index [2, 5]: 45.23 | IC50 [4]: 19 µM

O=C(Nc1ccc(-c2nc3ccccc3o2)cc1)c1ccc(NC(=O)c2cc3ccccc3o2)cc1 [Compound 46, N-[4-({[4-(1,3-benzoxazol-2-yl)phenyl]amino}carbonyl)phenyl]-1-benzofuran-2-carboxamide]
CC50 at 3 days [3]: 1380 µM | IC50 ([2]; Table 10, Scaffold 1): 40 µM | Selectivity Index [2, 5]: 34.49 | IC50 [4]: 17.4 µM

O=C(Nc1ccc(-c2nc3cc4ccccc4cc3[nH]2)cc1)c1cccc(Br)c1 [Compound 48, 3-bromo-N-[4-(1H-naphtho[2,3-d]imidazol-2-yl)phenyl]benzamide]
CC50 at 3 days [3]: 302 µM | IC50 ([2]; Table 8, virus-induced CPE): 0.71 µM | Selectivity Index ([2]; Table 8, CC50/IC50): 426.06 | Selectivity Index ([2]; Table 11, Scaffold 2, CC50/IC50): 426.06 | IC50 [4]: 33.1 µM

O=C(Nc1cccc(-c2nc3cc4ccccc4cc3[nH]2)c1)c1ccco1 [Compound 50, N-[3-(1H-naphtho[2,3-d]imidazol-2-yl)phenyl]-2-furamide]
CC50 at 3 days [3]: 562 µM | IC50 ([2]; Table 11, Scaffold 2): > 25 µM

O=C(Nc1ccc2[nH]c(-c3ccc(Br)o3)nc2c1)c1ccc([N+](=O)[O-])cc1 [Compound 51, N-[2-(5-bromo-2-furyl)-1H-benzimidazol-5-yl]-4-nitrobenzamide]
CC50 at 3 days [3]: 126 µM | IC50 ([2]; Table 12, Scaffold 3): 72.4 µM | Selectivity Index [2, 6]: 1.74 | IC50 [4]: 54.1 µM

O=C(Nc1ccc2[nH]c(-c3ccccc3)nc2c1)c1ccccc1 [Compound 53, N-(2-phenyl-1H-benzimidazol-5-yl)benzamide]
CC50 [3]: 125 µM | Selectivity Index [2]: 9.43 | IC50 ([2]; Table 12, Scaffold 3): 13.2 µM

Cn1cccc1-c1nc2cc(NC(=O)c3ccccc3)ccc2[nH]1 [Compound 54, N-[2-(1-methyl-1H-pyrrol-2-yl)-1H-benzimidazol-5-yl]benzamide]
CC50 at 3 days [3]: 33.1 µM | IC50 ([2]; Table 12, Scaffold 3): 47.6 µM | Selectivity Index [2, 6]: 0.69

Cn1cccc1-c1nc2cc(NC(=O)c3cccs3)ccc2[nH]1 [Compound 58, N-[2-(1-methyl-1H-pyrrol-2-yl)-1H-benzimidazol-5-yl]-2-thiophenecarboxamide]
CC50 at 3 days [3]: 62.8 µM | IC50 ([2]; Table 12, Scaffold 3): 23.7 µM | Selectivity Index [2, 6]: 2.66

Cc1ccc2[nH]c(-c3ccc(N)cc3)nc2c1 [Compound 59, 4-(5-methyl-1H-benzimidazol-2-yl)aniline]
CC50 at 3 days [3]: 189 µM | IC50 ([2]; Table 13, Scaffold 4): > 25 µM

Cc1ccc(-c2nc3ccccc3[nH]2)cc1NC(=O)c1ccco1 [Compound 60, N-[5-(1H-benzimidazol-2-yl)-2-methylphenyl]-2-furamide]
CC50 at 3 days [3]: > 400 µM | IC50 ([2]; Table 13, Scaffold 4): > 25 µM

Nc1ccc(-c2nc3ccc(Cl)cc3[nH]2)cc1 [Compound 61, 4-(6-chloro-1H-benzimidazol-2-yl)aniline]
CC50 at 3 days [3]: 126 µM | IC50 ([2]; Table 13, Scaffold 4): 51.3 µM | Selectivity Index [2, 7]: 2.46

O=C(Nc1cccc(-c2nc3ccccc3[nH]2)c1)c1ccco1 [Compound 62, N-[3-(1H-benzimidazol-2-yl)phenyl]-2-furamide]
CC50 at 3 days [3]: 81.5 µM | IC50 ([2]; Table 13, Scaffold 4): 50.2 µM | Selectivity Index [2, 7]: 1.62

Cc1ccc2[nH]c(-c3cccc(NC(=O)c4ccc(Br)o4)c3)nc2c1 [Compound 64, 5-bromo-N-[3-(5-methyl-1H-benzimidazol-2-yl)phenyl]-2-furamide]
CC50 at 3 days [3]: 43.8 µM | IC50 ([2]; Table 13, Scaffold 4): 71.4 µM | Selectivity Index [2, 7]: 0.61

c1ccc2[nH]c(-c3ccc(-c4nc5ccccc5[nH]4)cc3)nc2c1 [Compound 65, 2,2′-(1,4-phenylene)bis-1H-benzimidazole]
CC50 at 3 days [3]: 379 µM | IC50 ([2]; Table 8, virus-induced CPE): 2.17 µM | Selectivity Index ([2]; Table 8, CC50/IC50): 174.52 | Selectivity Index [2, 7]: 174.52

Cc1ccc(-c2nc3ccccc3[nH]2)cc1NC(=O)c1cc2ccccc2o1 [Compound 66, N-[5-(1H-benzimidazol-2-yl)-2-methylphenyl]-1-benzofuran-2-carboxamide]
CC50 at 3 days [3]: 94.7 µM | IC50 ([2]; Table 13, Scaffold 4): 8.52 µM | Selectivity Index [2, 7]: 11.11

O=C(Nc1cccc(-c2nc3ccccc3[nH]2)c1)c1cc2ccccc2o1 [Compound 67, N-[3-(1H-benzimidazol-2-yl)phenyl]-1-benzofuran-2-carboxamide]
CC50 at 3 days [3]: 43 µM | IC50 ([2]; Table 13, Scaffold 4): 14.9 µM | Selectivity Index [2, 7]: 2.89

COc1ccccc1OCC(=O)Nc1ccc(-c2nc3cc(C)ccc3[nH]2)cc1 [Compound T1, 2-(2-methoxyphenoxy)-N-[4-(5-methyl-1H-benzimidazol-2-yl)phenyl]acetamide]
CC50 at 3 days [3]: 306 µM | IC50 ([2]; Table 6): 5 µM | Selectivity Index ([2]; Table 6, CC50/IC50): 61.24

COc1cc(C)c(S(=O)(=O)NCCc2c(C)[nH]c3ccccc23)cc1C [Compound T2, 4-methoxy-2,5-dimethyl-N-[2-(2-methyl-1H-indol-3-yl)ethyl]benzenesulfonamide]
CC50 at 3 days [3]: 85.4 µM | IC50 ([2]; Table 6): 17 µM | Selectivity Index ([2]; Table 6, CC50/IC50): 5.03

O=C(Nc1ccc2[nH]c(-c3ccc(Br)o3)nc2c1)c1ccccc1 [Compound T4, N-[2-(5-bromo-2-furyl)-1H-benzimidazol-5-yl]benzamide]
CC50 at 3 days [3]: > 200 µM | IC50 ([2]; Table 6): 12.2 µM | Selectivity Index ([2]; Table 6, CC50/IC50): >16.33

COc1ccc(CCNC(=O)C(=O)c2c(-c3ccccc3)[nH]c3ccccc23)cc1OC [Compound T6, N-[2-(3,4-dimethoxyphenyl)ethyl]-2-oxo-2-(2-phenyl-1H-indol-3-yl)acetamide]
CC50 at 3 days [3]: > 200 µM | IC50 ([2]; Table 6): 44.2 µM | Selectivity Index ([2]; Table 6, CC50/IC50): >4.52

Reference: patent US20240131007A1, “METHODS AND COMPOSITIONS FOR PICORNAVIRUS ANTI-VIRAL AGENTS” (University of Connecticut, priority 2022, published 2024)
